The results in this text go back to US11897865B2, “ABHD12 inhibitors and methods of making and using same” (THE SCRIPPS RESEARCH INSTITUTE, priority 2018, dated 2024).

A word on the IC50: it is the concentration needed to halve the response being measured. Usually inhibition stands for the change of the read-out against control, counted positive when it falls.

For this assay, the target named is T1, ABHD12 (Mus musculus, UniProt Q99LR1).
T1 construct: from tissue; host or cells: brain membrane proteome
T1 sequence (Q99LR1 1-398): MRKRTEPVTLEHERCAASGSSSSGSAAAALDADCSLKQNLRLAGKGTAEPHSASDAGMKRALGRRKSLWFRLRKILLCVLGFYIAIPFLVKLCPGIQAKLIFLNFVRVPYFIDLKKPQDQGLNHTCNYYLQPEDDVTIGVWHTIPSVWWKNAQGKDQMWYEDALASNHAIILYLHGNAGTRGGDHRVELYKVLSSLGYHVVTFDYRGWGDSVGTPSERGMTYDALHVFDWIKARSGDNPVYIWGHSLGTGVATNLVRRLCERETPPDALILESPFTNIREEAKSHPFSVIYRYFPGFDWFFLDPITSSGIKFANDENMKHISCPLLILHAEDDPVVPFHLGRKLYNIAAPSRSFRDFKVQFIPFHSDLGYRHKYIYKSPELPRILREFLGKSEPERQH
The experiment in a line: Gel-based competitive ABPP, JJH350 probe vs brain membrane proteome. The note with it: for IC50: read-out: IC50 (ABPP gel_JJH350 probe vs brain mem); for inhibition at 10 µM: 10 μM compound, read-out: % Inhibition @ 10 μM (ABPP gel_JJH350 probe vs brain mem); for % Inhibition (ABPP gel_JJH350 probe vs brain mem), at 2 uM: at 2 uM compound. Format: biochemical. Here is the method: Gel-Based Competitive ABPP for In Vitro Inhibitor Treatment of Proteomes:
Gel-based ABPP assays were performed as previously reported (Bachovchin, D. A. et al. Superfamily-wide portrait of serine hydrolase inhibition achieved by library-versus-library screening. Proc. Natl. Acad. Sci. U. S. A. 2010, 107, 20941-20946). Cell or tissue proteomes (50 μL, 1 mg/mL) were treated with either FP-Rh (1 μM final concentration) or JJH350 (2 μM final concentration) for 45 min at 37° C. For FP-Rh labeled samples, the reactions were quenched by adding 20 μL of 4× SDS-PAGE loading buffer. The 30 μL of the quenched samples were loaded on gel for analysis. For (S)-1,3-dioxo-7-(4-phenoxybenzoyl)hexahydroimidazo[1,5-a]pyrazin-2(3H)-yl 4-(4-(prop-2-yn-1-yloxy)phenyl)piperazine-1-carboxylate (JJH350)-labeled samples, copper-catalyzed azide-alkyne cycloaddition (CuAAC) was used for visualizing the labeled proteins following the reported protocol. Briefly, rhodamine-PEG3-N3 (1 μL/reaction, 1.25 mM in DMSO), CuSO4 (1 μL/reaction, 50 mM in H2O), TBTA (3 μL/reaction, 1.7 mM in DMSO/t-BuOH [1:4, v/v]) and tris(2-carboxyethyi)phosphine (TCEP) (1 μL/reaction, 50 mM in H2O, freshly prepared) were premixed. 6 μL of this click reagent mixture was immediately added to each JJH350-labeled samples (50 μL, 1 mg/mL) and incubated for 1 h at room temperature. The reactions were quenched by adding 20 μL of 4× SDS-PAGE loading buffer. The 40 μL of the quenched samples were loaded on a gel for analysis.
After separation by SDS-PAGE (10% acrylamide), samples were visualized by in-gel fluorescence scanning using the ChemiDoc MP system (Bio-Rad). Band intensities were quantified using the Image Lab (5.2.1) software (Bio-Rad).

With `O=C(Nc1cccnc1)NC1CCN(c2nccc(Oc3ccc(OC(F)(F)F)cc3Cl)c2Cl)CC1` [Example 6, 1-(1-(3-Chloro-4-(2-chloro-4-(trifluoromethoxy)phenoxy)pyridin-2-yl)piperidin-4-yl)-3-(pyridin-3-yl)urea], the IC50 is 100 to 1000 nM.

With `Cc1cnc(N2CCC(NC(=S)Nc3cccnc3)CC2)c(Cl)c1` [Example 8, 1-(1-(3-Chloro-5-methylpyridin-2-yl)piperidin-4-yl)-3-(pyridin-3-yl)thiourea], the inhibition at 10 µM is not below 75%.

As to `FC(F)(F)c1cnc(N2CCC(NC(=S)Nc3ccccc3)CC2)c(Cl)c1` [Example 9, 1-(1-(3-Chloro-5-(trifluoromethyl)pyridin-2-yl)piperidin-4-yl)-3-phenylthiourea], the inhibition at 10 µM was not below 75%. As for `C#Cc1ccc(N2CCC(NC(=S)Nc3cccnc3)CC2)nc1` [Example 10, 1-(1-(5-Ethynylpyridin-2-yl)piperidin-4-yl)-3-(pyridin-3-yl)thiourea], the “% Inhibition (ABPP gel_JJH350 probe vs brain mem), at 2 uM” value was “C (at 2 uM) (% inhibition is greater than or equal to 25% and less than 50%)”. As to `S=C(Nc1cccnc1)NC1CCN(c2ccc(Cl)cn2)CC1` [Example 11, 1-(1-(5-Chloropyridin-2-yl)piperidin-4-yl)-3-(pyridin-3-yl)thiourea], the inhibition at 10 µM is not below 75%. In the case of `Fc1ccc(N2CCC(NC(=S)Nc3cccnc3)CC2)nc1` [Example 12, 1-(1-(5-Fluoropyridin-2-yl)piperidin-4-yl)-3-(pyridin-3-yl)thiourea], the inhibition at 10 µM was not below 75%.

In the case of `FC(F)(F)Oc1ccc(N2CCC(NC(=S)Nc3cccnc3)CC2)nc1` [Example 13, 1-(Pyridin-3-yl)-3-(1-(5-(trifluoromethoxy)pyridin-2-yl)piperidin-4-yl)thiourea], the inhibition at 10 µM is not below 75%. Same read-out and setting: then `S=C(Nc1cccnc1)NC1CCN(c2ncccc2Cl)CC1` [Example 17, 1-(1-(3-Chloropyridin-2-yl)piperidin-4-yl)-3-(pyridin-3-yl)thiourea], with 50 to 75%; and `FC(F)(F)c1cc(Cl)cnc1N1CCC(NC(=S)Nc2cccnc2)CC1` [Example 18, 1-(1-(5-Chloro-3-(trifluoromethyl)pyridin-2-yl)piperidin-4-yl)-3-(pyridin-3-yl)thiourea], with not below 75%; and `S=C(Nc1cccnc1)NC1CCN(c2ccc(Cl)nc2)CC1` [Example 19, 1-(1-(6-Chloropyridin-3-yl)piperidin-4-yl)-3-(pyridin-3-yl)thiourea], with 0 to 25%. As for `C#Cc1cnc(N2CCC(NC(=S)Nc3cccnc3)CC2)c(Cl)c1` [Example 20, 1-(1-(3-Chloro-5-ethynylpyridin-2-yl)piperidin-4-yl)-3-(pyridin-3-yl)thiourea], the “% Inhibition (ABPP gel_JJH350 probe vs brain mem), at 2 uM” value is “B (at 2 uM) (% inhibition is greater than or equal to 50% and less than 75%)”.

As to `Fc1cc(C(F)(F)F)cnc1N1CCC(NC(=S)Nc2cccnc2)CC1` [Example 21, 1-(1-(3-Fluoro-5-(trifluoromethyl)pyridin-2-yl)piperidin-4-yl)-3-(pyridin-3-yl)thiourea], the inhibition at 10 µM was not below 75%. On the same count and under the same terms, the same measure for `FC(F)(F)Oc1ccc(-c2ccnc(N3CCC(NC(=S)Nc4cccnc4)CC3)c2)cc1` [Example 22, 1-(Pyridin-3-yl)-3-(1-(4-(4-(trifluoromethoxy)phenyl)pyridin-2-yl)piperidin-4-yl)thiourea]: not below 75%; for `FC(F)(F)Oc1cccc(-c2ccnc(N3CCC(NC(=S)Nc4cccnc4)CC3)c2)c1` [Example 23, 1-(Pyridin-3-yl)-3-(1-(4-(3-(trifluoromethoxy)phenyl)pyridin-2-yl)piperidin-4-yl)thiourea]: not below 75%; for `FC(F)(F)c1ccccc1-c1ccnc(N2CCC(NC(=S)Nc3cccnc3)CC2)c1` [Example 24, 1-(pyridin-3-yl)-3-(1-(4-(2-(trifluoromethyl)phenyl)pyridin-2-yl)piperidin-4-yl)thiourea]: 50 to 75%.

With `S=C(Nc1cccnc1)NC1CCN(c2cc(OC3CCCCC3)ccn2)CC1` [Example 30, 1-(1-(4-(Cyclohexyloxy)pyridin-2-yl)piperidin-4-yl)-3-(pyridin-3-yl)thiourea], the inhibition at 10 µM is not below 75% and the IC50 lay within 1000 to 25000 nM. For `S=C(Nc1cccnc1)NC1CCN(c2cc(OCC3CC3)ccn2)CC1` [Example 31, 1-(1-(4- (Cyclopropylmethoxy)pyridin-2-yl)piperidin-4-yl)-3-(pyridin-3-yl)thiourea], the inhibition at 10 µM was not below 75% and the IC50 was in the range of 1000 to 25000 nM.

With `FC(F)COc1ccnc(N2CCC(NC(=S)Nc3cccnc3)CC2)c1` [Example 32, 1-(1-(4-(2,2-Difluoroethoxy)pyridin-2-yl)piperidin-4-yl)-3-(pyridin-3-yl)thiourea], the inhibition at 10 µM fell in the range of 50 to 75%.

For `S=C(Nc1cccnc1)NC1CCN(c2cc(OCCC3CC3)ccn2)CC1` [Example 33, 1-(1-(4-(2-Cyclopropylethoxy)pyridin-2-yl)piperidin-4-yl)-3-(pyridin-3-yl)thiourea], the inhibition at 10 µM is not below 75%. With `FC(F)(F)CCCOc1ccnc(N2CCC(NC(=S)Nc3cccnc3)CC2)c1` [Example 34, 1-(Pyridin-3-yl)-3-(1-(4-(4,4,4-trifluorobutoxy)pyridin-2-yl)piperidin-4-yl)thiourea], the inhibition at 10 µM is not below 75%.

Take `FC1(F)CCC(Oc2ccnc(N3CCC(NC(=S)Nc4cccnc4)CC3)c2)CC1` [Example 35, 1-(1-(4-((4,4-Difluoro-cyclohexyl)oxy)pyridin-2-yl)piperidin-4-yl)-3-(pyridin-3-yl)thiourea]: the inhibition at 10 µM was not below 75%. With `CC(C)OC(=O)N1CCC(Oc2ccnc(N3CCC(NC(=S)Nc4cccnc4)CC3)c2)CC1` [Example 36, Isopropyl 4-((2-(4-(3-(pyridin-3-yl)thioureido)piperidin-1-yl)pyridin-4-yl)oxy)piperidine-1-carboxylate], the inhibition at 10 µM was 50 to 75%. Regarding `S=C(Nc1cccnc1)NC1CCN(c2cc(OCc3ccccc3)ccn2)CC1` [Example 37, 1-(1-(4-(Benzyloxy)pyridin-2-yl)piperidin-4-yl)-3-(pyridin-3-yl)thiourea], the inhibition at 10 µM is not below 75% and the IC50 lay within 1000 to 25000 nM. For the molecule `Fc1ccc(COc2ccnc(N3CCC(NC(=S)Nc4cccnc4)CC3)c2)cc1` [Example 38, 1-(1-(4-((4-Fluorobenzyl)oxy)pyridin-2-yl)piperidin-4-yl)-3-(pyridin-3-yl)thiourea], the inhibition at 10 µM was not below 75%. As for `FC(F)(F)Oc1ccc(COc2ccnc(N3CCC(NC(=S)Nc4cccnc4)CC3)c2)cc1` [Example 39, 1-(Pyridin-3-yl)-3-(1-(4-((4-(trifluoromethoxy)benzyl)oxy)pyridin-2-yl)piperidin-4-yl)thiourea], the inhibition at 10 µM is not below 75%.

With `Fc1ccc(COc2ccnc(N3CCC(NC(=S)Nc4cccnc4)CC3)c2)cc1F` [Example 42, 1-(1-(4-((3,4-Difluorobenzyl)oxy)pyridin-2-yl)piperidin-4-yl)-3-(pyridin-3-yl)thiourea], the inhibition at 10 µM is not below 75%. As for `Fc1cc(Cl)ccc1Oc1ccnc(N2CCC(NC(=S)Nc3cccnc3)CC2)c1` [Example 43, 1-(1-(4-(4-Chloro-2-fluorophenoxy)pyridin-2-yl)piperidin-4-yl)-3-(pyridin-3-yl)thiourea], the inhibition at 10 µM is not below 75%.
